{"source": "patent US20030092633A1", "about": "“Preventing desensitization of receptors” (priority 2001, published 2003)", "key": {"[1]": {"assay": "Ratio of heart weight to body weight after 1 week continuous infusion", "assay_type": "in vivo", "conditions": "mice, infused continuously 1 week; GSNO 10/ng/kg/day; isoproterenol 30 mg/kg/day; combination 10 mg/kg/day GSNO plus 30 mg/kg/day isoproterenol; FIG. 1", "protocol": "Mice were treated with 10/ng/kg/day of GSNO, or with PBS (control) or with isoproterenol (at a dosage of 30 mg/kg/day) or with 10 mg/kg/day of GSNO plus 30 mg/kg/day isoproterenol, infused continuously for 1 week. The animals were sacrificed and the hearts were weighed and a ratio of heart weight to body weight was determined for each case. The results are set forth in FIG. 1 where hw:bw, i.e., the legend on the vertical axis, is the ratio of heart weight to total body weight and “ISO” means isoproterenol. […] The increase in size of heart (hypertrophy) is an advantage especially in the case of a patient on a left ventricular heart assist device awaiting heart transplant and in the case of a patient who has had heart surgery and cannot be disconnected from a heart pump without loss of heart function. The asterisks in FIG. 1 mean […] compared to control."}, "[2]": {"assay": "Example III: patient who cannot be removed from bypass after coronary artery bypass grafting", "assay_type": "in vivo", "conditions": "intravenous GSNO 2 nmol per kg per minute, after two hours", "from_the_text": "A person with an ejection fraction of 17% undergoes coronary artery bypass grafting. The surgeons are unable to remove the patient from bypass."}, "GRK": {"system": "GRK", "assay": "GRK phosphorylation of synthetic peptide substrate with 32P-ATP (isolated system)", "assay_type": "biochemical", "conditions": "GSNO 500 μM, 50 μM, 5 μm; counts per minute; FIG. 3", "protocol": "An isolated system was provided consisting of medium, GRK, standard synthetic peptide substrate and radiolabeled ^32P-adenosine triphosphate, i.e., ^32P-ATP, as a source of phosphate. Runs were carried out on the system without additives, and with 500 μM glutathione (GSH) present and with GSNO (500 μM) present or with GSNO (50 μM) present or with GSNO (5 μm) present. The amount of bound ^32P was measured in counts per minute (CPM)."}, "β-adrenergic receptor": {"system": "β-adrenergic receptor", "assay": "Saturation binding with radiolabeled 125I-cyanopindolol in purified cardiac membrane of treated mice", "assay_type": "in vivo", "protocol": "Mice were treated with 10 ng/kg/day of GSNO or PBS infused continuously for 1 week through an azlet miniosmotic pump placed subcutaneously. Another set of mice was treated for 7 days with isoproterenol (30 mg/kg/day), and the fourth and final group received for 7 days, isoproterenol (30 mg/kg/day) plus GSNO (10 ng/kg/day). The mice were sacrificed and heart tissue was removed. Saturation binding with radiolabeled 1^125-cyanopindolol was carried out in purified cardiac membrane according to the procedure of Iaccarino et al, Circulation 98, 17A3-17A9 (1998)."}, "[3]": {"assay": "Example II: patient on left ventricular assist device awaiting cardiac transplantation", "assay_type": "in vivo", "conditions": "IV GSNO 4 nmol per kg per minute", "from_the_text": "A person awaiting cardiac transplantation is placed a left ventricular assist device, but continues to suffer from severe shortness of breath."}, "[4]": {"assay": "Example I: patient with class 4 congestive heart failure", "assay_type": "in vivo", "protocol": "A person with class 4 congestive heart failure enters the hospital with shortness of breath and bradyacardia. […] The patient is subsequently switched to IV dobutamine at 10 μg per kg per minute titrated to cardiac output. Over the following three days the drug is increased to 30 μg per kg per minute to maintain cardiac output. […] The patient undergoes bypass surgery and does well even though they have been viewed as at high risk."}, "[5]": {"assay": "Example IV: metastatic prostate cancer patient with bone pain unresponsive to opiates", "assay_type": "in vivo", "conditions": "intravenous GSNO 10 nmol per kg per minute in conjunction with morphine", "from_the_text": "A person with metastatic prostate cancer is suffering from severe bone pain unresponsive to opiates."}, "[6]": {"assay": "Example VI: cystic fibrosis patient with shortness of breath", "assay_type": "in vivo", "conditions": "inhaled GSNO, 3 cc of a 10 mM solution, pH 7, 4×/day", "protocol": "A person with cystic fibrosis enters the hospital complaining of shortness of breath. […] They are started on inhaled GSNO (3 cc of a 10 mM solution, pH 7, 4×/day)."}, "[7]": {"assay": "Example V: heroine addict, dose tapering, withdrawal symptoms", "assay_type": "in vivo, patient", "conditions": "ethyl nitrite intravenously 2 nmol per kg per minute", "from_the_text": "A heroine addict enters a clinic where their dose is tapered gradually. In order to avoid symptoms of withdrawal, ethyl nitrite is started intravenously at 2 nmol per kg per minute and symptoms of withdrawal, including sweats and shaking, are ameliorated."}, "[8]": {"assay": "Example VII: patient with rheumatoid arthritis and pulmonary infiltrates", "assay_type": "in vivo", "conditions": "intravenous ethyl nitrite 2 nmol per kg per minute", "from_the_text": "A person with rheumatoid arthritis and pulmonary infiltrates complains of shortness of breath and knee pain."}}, "data": [{"smiles": "N[C@@H](CCC(=O)N[C@@H](CSN=O)C(=O)NCC(=O)O)C(=O)O", "note": "[GSNO, S-nitrosoglutathione]", "values": [{"measurement": "ratio of heart weight to body weight (hw:bw), size of heart muscle", "setting": "[1]", "result": "increases the size of the heart muscle"}, {"measurement": "removal from bypass", "setting": "[2]", "result": "successfully removed from bypass"}, {"measurement": "amount of bound 32P (incorporation of 32P into substrate)", "setting": "GRK", "result": "concentration dependent reduction in incorporation of ^32P"}, {"measurement": "amount of β-adrenergic receptor", "setting": "β-adrenergic receptor; GSNO 10 ng/kg/day infused 1 week, no isoproterenol", "result": 40, "unit": "fmol per mg/protein"}, {"measurement": "cardiac output", "setting": "[3]", "result": "increase in cardiac output"}, {"measurement": "shortness of breath", "setting": "[3]", "result": "decrease in shortness of breath"}, {"measurement": "cardiac output", "setting": "[4]; IV GSNO 2 nmol per kg per minute, on dobutamine 30 μg per kg per minute, over the following 24 hours", "result": "improved"}, {"measurement": "bone pain", "setting": "[5]", "result": "relieves their pain"}, {"measurement": "FEV1 (acute)", "setting": "[6]", "result": "does not change acutely"}, {"measurement": "blood pressure", "setting": "[6]", "result": "remains stable"}, {"measurement": "symptoms of shortness of breath", "setting": "[6]; with corresponding improvement in FEV1", "result": "resolve over the following 48 hours"}]}, {"smiles": "N[C@@H](CSN=O)C(=O)O", "note": "[S-nitroso-cysteine]", "values": [{"measurement": "amount of bound 32P (incorporation of 32P into substrate)", "setting": "GRK", "result": "same result of GRK inhibition and interference with substrate phosphorylation"}]}, {"smiles": "CCON=O", "note": "[ethyl nitrite]", "values": [{"measurement": "symptoms of withdrawal, including sweats and shaking", "setting": "[7]", "result": "ameliorated"}, {"measurement": "knee pain", "setting": "[8]", "result": "decrease in knee pain"}, {"measurement": "respiratory status", "setting": "[8]", "result": "improvement in respiratory status"}]}, {"smiles": "CC(C)NCC(O)c1ccc(O)c(O)c1", "note": "(stereo not drawn) [isoproterenol, reference compound]", "values": [{"measurement": "ratio of heart weight to body weight (hw:bw), size of heart muscle", "setting": "[1]", "result": "increased the size of the heart muscle"}, {"measurement": "amount of β-adrenergic receptor", "setting": "β-adrenergic receptor; isoproterenol 30 mg/kg/day for 7 days, no GSNO", "result": "20 fmol per milligram protein"}, {"measurement": "symptoms (shortness of breath and bradyacardia)", "setting": "[4]; 10 μg per minute intravenous isoproterenol", "result": "resolution of symptoms"}]}]}
